From the METLIN SMRT retention time set (Domingo-Almenara et al. 2019)

assay: gradient 5% acetonitrile 3 min, to 50% in 2 min, to 85% in 15 min, held 3 min, 100 µL/min; conditions: column: Zorbax Extend-C18 2.1 x 50 mm; eluents: water / acetonitrile, 0.1% formic acid
In short: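 Retention time was recorded from adduct peaks, which were picked computationally and each inspected manually. Pure standards ran in mixtures of ~100 molecules on HPLC coupled to a quadrupole time-of-flight mass spectrometer, in positive and negative ionization mode, through a Zorbax Extend-C18 column (2.1 × 50 mm, 1.8 μm) at 100 μL/min. Eluents were water and acetonitrile, each with 0.1% formic acid.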

SMILES | RP-LC retention time
Cc1ccc2nc(C(=O)N3CCN(c4ccccc4C)CC3)cn2c1 | 664 s
O=C(CN1C(=O)C2CCCCN2c2ccc(C(=O)N3CCCC3)cc21)NCCc1ccco1 (stereo not given) | 664 s
CCc1ccc(N(CC)C(=O)Cn2cnc3nc4c(cc3c2=O)CCCC4)cc1 | 885 s
Cn1nc(N2CCC(NC(=O)c3ccsc3)C2)ccc1=O (stereo not given) | 640 s
O=C(O)CSc1nc2ccccc2s1 | 795 s
CC(C)N1C(=O)C(C)(C(=O)NCc2ccc(F)cc2)Oc2cccnc21 (stereo not given) | 984 s
Cc1ccc(NC(=O)C2CCN(S(=O)(=O)c3cn(C)cn3)CC2)c(C)c1 | 706 s
CCOC(=O)c1c(C)c(C(=O)CN(CC2CCCO2)C(=O)c2cccc(F)c2)c(C)n1C (stereo not given) | 920 s
Cn1c(C2CCN(C(=O)c3cc4c(s3)CCCC4)C2)nc2cccnc21 (stereo not given) | 797 s
CN1CCN(CCNC(=O)C2CCc3sc(C(=O)N4CCCCCC4)cc3C2)CC1 (stereo not given) | 601 s
O=C(C1CCN(S(=O)(=O)c2ccc(-c3noc(C4CC4)n3)cc2)CC1)N1CCCCCC1 | 1030 s
O=C(CSc1ncc(CO)n1Cc1ccccc1)N1CCCc2ccccc21 | 684 s
Cc1[nH]c2ccccc2c1CC(=O)NCCc1c[nH]c2ccccc12 | 826 s
CC1CCN(CCNC(=O)C2CCN(S(=O)(=O)c3ccc4c(c3)sc(=O)n4C)CC2)CC1 | 622 s
CC(C)c1nccn1C1CN(S(=O)(=O)c2cccc(F)c2)C1 | 640 s
Cc1ccsc1C(=O)Nc1cccn2c(C)nnc12 | 670 s
CCNC(=O)Cc1nnc(-c2cccc(F)c2)o1 | 656 s
CCCCCNC(=O)c1ccc(Oc2nccnc2N2CCSCC2)cc1 | 1030 s
COC(=O)c1ccccc1NC(=O)Cn1c(N2CCCC2)nc(C)cc1=O | 612 s
CC(C)CN1CCn2cc(S(=O)(=O)NCc3ccc(F)cc3Cl)cc2C1=O | 838 s
O=C(NCCN1CCCC1)c1ccc(-c2noc(-c3ccccc3)n2)s1 | 673 s
CCNC(=O)C1CCN(C(=O)Nc2ccc(NC(=O)Nc3ccccc3F)cc2)CC1 | 686 s
O=C([C@@H]1C[C@H](F)CN1C(=O)Cc1ccc(F)cc1)N1CCCCC1 | 601 s
Cc1nc(-c2ccc(C(=O)NC3CC3)cc2)no1 | 668 s
CNC(=O)c1csc2c1CCCCC2 | 787 s

SMILES | RP-LC retention time
N#Cc1cccc(C(=O)NC2CCN(c3ccc(F)cc3)C2=O)c1 (stereo not given) | 768 s
COc1ccc(N2CCN(C(=O)C3CCCN(c4cnc5nccnc5c4)C3)CC2)cc1 (stereo not given) | 737 s
C#Cc1cccc(Nc2ncnc3cc4c(cc23)OCCOCCOCCO4)c1 | 674 s
CCn1c(N2CCCC(C(=O)NCc3cccc(C)c3)C2)cc(=O)n(C)c1=O (stereo not given) | 824 s
CN1C(=O)c2cccn2CC1C(=O)NC1CCCCCC1 (stereo not given) | 731 s
CCOc1nc2ccccc2nc1N1CCCC(C(=O)Nc2ccc(OC)c(Cl)c2)C1 (stereo not given) | 1240 s
Cc1ncc2c(SCC(=O)NCc3ccc(F)cc3F)ncnc2n1 | 579 s
CSc1ccc(CNC(=O)CCNc2cnc3cnccn23)cc1 | 588 s
COc1ccc(CNC(=O)c2[nH]c3cc(C)sc3c2CN(C)C)cc1 | 664 s
Cc1ccc(CNC(=O)C2(C)Cn3nc(C(=O)NCCN(C)C)cc3C(=O)N2C)cc1 (stereo not given) | 639 s
COCCC1CCN(C(=O)c2cc(-c3ccccc3)n[nH]2)CC1 | 758 s
CCC(C)NC(=O)c1nccnc1NC(=O)c1ccc(C)cc1 (stereo not given) | 990 s
O=C(Nc1ccc(F)cc1)C(=O)c1ccc[nH]1 | 821 s
O=C(Cn1cccc1-c1nnc(C2CC2)o1)NCc1ccccc1Cl | 815 s
CCOc1ccccc1NC(=O)COc1nc(CC)nc2ccccc12 | 884 s
Cc1ccc(C(=O)N2CCCCCCN(C)C(=O)[C@@H]3CCC[C@@H]32)s1 | 912 s
CN1C(=O)CCC2(CNC(=O)c3ccnn3C)CCC=C12 (stereo not given) | 639 s
CCn1c(-c2ccccc2)cc(C(N)=O)c1C | 591 s
O=C(NCc1ccc(N2CCCC2)nc1)c1ccc(Cl)s1 | 634 s
O=C(C1CCN(c2ncnc3c2oc2ccccc23)CC1)N1CCCC1 | 654 s
CCOC(=O)c1c(C)oc2nc(C)nc(Nc3ccc(C)c(F)c3)c12 | 1360 s
Cc1ccc(CN2CCC(CNC(=O)c3c(C)oc4ncnc(N5CCOCC5)c34)C2)cc1 (stereo not given) | 853 s
Cc1cc(N2CCN(C(=O)Nc3ccc(C)c(Cl)c3)CC2)nc(N2CCOCC2)n1 | 688 s
O=C(c1ccc2ncnc(N3CCCC3)c2c1)N1CCN(c2ccccc2)CC1 | 646 s
COCc1nc2cccnc2n1C1CCN(C(=O)Nc2ccc(Br)cc2)CC1 | 747 s

Continued, values first:

RP-LC retention time | SMILES
744 s | O=C(CCCc1nnc2c(=O)n(-c3ccc(Cl)cc3)ccn12)NCCc1c[nH]c2ccccc12
655 s | CSc1ccc(CNC(=O)c2cc(-c3ccncc3)cn2C)cc1
1310 s | Cc1ccc(-c2coc(-c3cccc(NS(=O)(=O)c4ccc(Cl)s4)c3)n2)cc1
1010 s | Cn1nc(-c2nnc(-c3ccccc3F)o2)c2c1CCN(S(=O)(=O)c1ccc3c(c1)CCC3)C2
742 s | CCn1cnc2ccc(-c3noc(-c4ccccc4OC)n3)cc21
653 s | CCC(=O)N1CCc2cc(-c3ccc(C(=O)N4CCN(c5ccccn5)CC4)cc3)ccc21
707 s | COC(=O)c1nn(-c2ccc(C)cc2)c2c(=O)n(C)cnc12
876 s | Cc1cc(-n2c(C)nc3ccccc3c2=O)ccc1NC(=O)C(C)Oc1ccccc1 (stereo not given)
671 s | CCOc1ccc(S(=O)(=O)NC2CCN(c3ccc(=O)[nH]n3)C2)cc1 (stereo not given)
778 s | O=C(Cn1ccn2nc(-c3ccc(F)cc3)c(CO)c2c1=O)NCc1ccc2c(c1)OCO2
844 s | Cc1cc(F)ccc1NC(=O)C1CCN(S(=O)(=O)c2ccc3c(c2)sc(=O)n3C)CC1
1110 s | COc1ccc(-c2noc(Cc3nnc(-c4cc(C)cc(C)c4)o3)n2)cc1
853 s | O=C(NCc1ccco1)C1CCN(Cc2cc3ccccc3n2Cc2cccc(Cl)c2)CC1
1070 s | CCSc1nc2ccc(NS(=O)(=O)c3cccc(Cl)c3)cc2s1
814 s | O=C(Cc1cccs1)Nc1nnc(SCc2nnc(-c3ccc4c(c3)OCO4)o2)s1
728 s | NC(=O)c1ccc(NC(=O)c2sc3ncccc3c2-n2cccc2)cc1
925 s | Cc1ccc(NS(=O)(=O)c2ccc(-c3nnc(C4CCC4)o3)o2)c(F)c1
989 s | CCN1C(=O)COc2ccc(-c3csc(NC(=O)c4ccc(F)cc4)n3)cc21
755 s | O=C(NCc1ccccc1F)c1ccc2c(c1)CN(CC1=Cc3ccccc3OC1)CCO2
890 s | CCOc1ccc(NS(=O)(=O)c2cc(C(=O)Nc3ccc(C)cc3)n[nH]2)cc1

RP-LC retention time | SMILES
805 s | COc1cccc(Cn2c(=O)c3cnc(-c4ccncc4)nc3n(C)c2=O)c1
753 s | Cc1nc2cc(N3CC(C(=O)Nc4ccc(F)c(C)c4)CC3=O)ccc2o1 (stereo not given)
715 s | CCOc1cc(Cl)c(S(=O)(=O)NCc2ccccn2)cc1Cl
1260 s | O=C(Nc1ccc(F)c(F)c1)c1c(O)c2cccnc2n(-c2cccc(F)c2)c1=O
842 s | CCN(CC)C(=O)Cn1nc2cc(-c3ccc(OC)cc3)nc(C)n2c1=O
1110 s | CC(C)c1ccc(NC(=O)C2CCN(S(C)(=O)=O)c3cc(Cl)ccc3O2)cc1 (stereo not given)
1170 s | COc1ccc(-c2noc(C3(NC(=O)COc4ccccc4)CCCCC3)n2)cc1
910 s | Cc1ccc(CN2C(=O)COc3ccc(C(=O)NC(C)(C)C)cc32)cc1
862 s | Cc1ccc(-c2cn3c(CC(=O)Nc4ccc(F)cc4C)csc3n2)cc1C
1020 s | C=CCn1c(=O)c2ccccc2n(Cc2nc(-c3ccc(OC)cc3)no2)c1=O
906 s | Cc1ccc(-c2nc(NC3CCCCC3C)c3ccccc3n2)cc1 (stereo not given)
809 s | COc1cc(OC)cc(-c2nc(-c3cn(-c4ccc(F)cc4)nn3)no2)c1
1220 s | O=C(Nc1ccc(F)cc1)c1c(O)c2cccnc2n(-c2cccc(F)c2)c1=O
667 s | CCc1nccn1Cc1nc(-c2cccc(Cl)c2)no1
823 s | COc1cc(CNC(=O)c2cnc(-c3ccccc3)nc2-c2ccncc2)cc(OC)c1
598 s | CN(C)C(=O)c1ccc2c(c1)nc(CN(C)C(=O)Nc1ccc(F)cc1)n2C
761 s | Cc1ccccc1-c1noc(-c2cccn(CC(=O)NC(C)C)c2=O)n1
993 s | COc1ccc(Cl)cc1NC(=O)N1CCc2c(c(-c3nnc(-c4ccc(F)cc4)o3)nn2C)C1
880 s | Cc1cccc(NC(=O)Cn2c(=O)n(-c3ccc(F)cc3)c3ncccc32)c1C
1050 s | CCC(Sc1nnc2c(n1)[nH]c1ccccc12)C(=O)Nc1nc(-c2ccccc2)cs1 (stereo not given)
